Measurements: US4352803A, “Novel naphthyridine derivatives, intermediates thereof, processes for preparation thereof, and use thereof” (Dainippon Pharmaceutical Co., Ltd., priority 1978, dated 1982)
≈ marks a conversion by molar mass, not a printed value.

Legend:
[1] = system: Serratia marcescens IFC 3736; assay: In vitro antibacterial activity (MIC), Serratia marcescens IFC 3736; format: cell-based; details: Serratia marcescens, IFC3736, read-out: minimum inhibitory concentration (MIC)
Source text: (§1) (MIC) (μg/ml) Method; Chemotherapy, 22(6), 1126 (1974)

[2] = system: Enterobacter cloacae P-2540; assay: In vitro antibacterial activity (MIC), Enterobacter cloacae P-2540; format: cell-based; details: P2540; Enterobacter cloacae P-2540; read-out: minimum inhibitory concentration (MIC)
Source text: as §1

Proteus mirabilis P-2381 = assay: In vitro antibacterial activity (MIC), Proteus mirabilis P-2381; format: cell-based; details: Proteus mirabilis, P2381, read-out: minimum inhibitory concentration (MIC)
Source text: as §1

[3] = system: Staphylococcus aureus No. 50774; assay: in vivo efficacy against systemic infection in mice, Staphylococcus aureus No. 50774; details: NO.50774, in Mus musculus, po, 336 h
Description: Male mice (ddY) weighing about 20 g
Intravenous infection with (about
5 × 10^8 cells/mouse) of a bacterial
(§2) Twice, about 5 minutes and 6 hours after infection.

Proteus morganii Kono = assay: In vitro antibacterial activity (MIC), Proteus morganii Kono; format: cell-based; details: Morganella morganii; Proteus morganii Kono; read-out: minimum inhibitory concentration (MIC)
Source text: as §1

[4] = Urinary excretion in dogs; format: in vivo, Beagle dogs
[5] = system: Streptococcus faecalis P-2473; assay: In vitro antibacterial activity (MIC), Streptococcus faecalis P-2473; format: cell-based; details: Enterococcus faecalis, P2473; Streptococcus faecalis P-2473; read-out: minimum inhibitory concentration (MIC)
Source text: as §1

Plasma level in dogs = format: in vivo, Beagle dogs
Description: Two male Beagle dogs weighing 12 kg each were orally given a capsule containing one of compounds 1 and 2 at a dose of 25 mg/kg with 200 ml of milk respectively. Blood samples were taken by venipuncture from the two dogs at each 0.5, 1, 2, 3, 6, 8 and 10 hours after administration, and centrifuged individually to separate the plasma.
Drug levels were determined by the thin-layer cup-plate method using Escherichia coli Kp as an indicator organism.

Escherichia coli P-5101 [6] = assay: In vitro antibacterial activity (MIC), Escherichia coli P-5101; format: cell-based; details: P5101; Escherichia coli P-5101; read-out: minimum inhibitory concentration (MIC)
Source text: as §1

[7] = system: Escherichia coli NIHJ JC-2; assay: In vitro antibacterial activity (MIC), Escherichia coli NIHJ JC-2; format: cell-based; details: NIHJJC2; Escherichia coli NIHJ JC-2; read-out: minimum inhibitory concentration (MIC)
Source text: as §1

[8] = system: Shigella flexneri 4a P-330; assay: In vitro antibacterial activity (MIC), Shigella flexneri 4a P-330; format: cell-based; details: 4AP330, read-out: minimum inhibitory concentration (MIC)
Source text: as §1

[9] = system: Pseudomonas aeruginosa Tsuchijima; assay: In vitro antibacterial activity (MIC), Pseudomonas aeruginosa Tsuchijima; format: cell-based; details: Pseudomonas aeruginosa, read-out: minimum inhibitory concentration (MIC)
Source text: as §1

Escherichia coli P-5101 [10] = assay: in vivo efficacy against systemic infection in mice, Escherichia coli P-5101; details: P5101, in Mus musculus, po, 168 h
Description: Male mice (ddY) weighing about 20 g
Intraperitoneal infection with (about
9 × 10^6 cells/mouse) of a bacterial
(§3) suspension in trypto-soy broth with 4% mucin.
as §2

[11] = system: Pseudomonas aeruginosa No. 12; assay: In vitro antibacterial activity (MIC), Pseudomonas aeruginosa No. 12; format: cell-based; details: Pseudomonas aeruginosa No. 12; read-out: minimum inhibitory concentration (MIC)
Source text: as §1

in vivo = details: mouse, in vivo, po
Description: The number of dead mice was counted after 7 days, and the value of median lethal dose (LD50, mg/kg) was calculated in accordance with the Behrens-Kaerber method.

[12] = system: Streptococcus pyogenes 65A; assay: In vitro antibacterial activity (MIC), Streptococcus pyogenes 65A; format: cell-based; details: Streptococcus pyogenes 65A; read-out: minimum inhibitory concentration (MIC)
Source text: as §1

[13] = system: Corynebacterium pyogenes C-21; assay: In vitro antibacterial activity (MIC), Corynebacterium pyogenes C-21; format: cell-based; details: Rhodococcus (subgen. Prescottella) equi, C21; Corynebacterium pyogenes C-21; read-out: minimum inhibitory concentration (MIC)
Source text: as §1

[14] = system: Klebsiella pneumoniae No. 13; assay: In vitro antibacterial activity (MIC), Klebsiella pneumoniae No. 13; format: cell-based; details: Klebsiella pneumoniae No. 13; read-out: minimum inhibitory concentration (MIC)
Source text: as §1

[15] = system: Staphylococcus aureus 209P JC-1; assay: In vitro antibacterial activity (MIC), Staphylococcus aureus 209P JC-1; format: cell-based; details: Staphylococcus aureus 209P JC-1; read-out: minimum inhibitory concentration (MIC)
Source text: as §1

Escherichia coli P-140a = assay: In vitro antibacterial activity (MIC), Escherichia coli P-140a; format: cell-based; details: P140A; Escherichia coli P-140a; read-out: minimum inhibitory concentration (MIC)
Source text: as §1

Shigella flexneri 2a = assay: In vitro antibacterial activity (MIC), Shigella flexneri 2a; format: cell-based; details: read-out: minimum inhibitory concentration (MIC)
Source text: as §1

[16] = system: Salmonella enteritidis No. 1891; assay: In vitro antibacterial activity (MIC), Salmonella enteritidis No. 1891; format: cell-based; details: Salmonella enterica; Salmonella enteritidis No. 1891; read-out: minimum inhibitory concentration (MIC)
Source text: as §1

[17] = system: Pseudomonas aeruginosa No. 12; assay: in vivo efficacy against systemic infection in mice, Pseudomonas aeruginosa No. 12; details: NO.12, in Mus musculus, po, 168 h
Description: Male mice (ddY) weighing about 20 g
(3) Pseudomonas aeruginosa No. 12;
(about 5 × 10^3 cells/mouse) of a bacterial
as §3, §2
The numerals in the table show ED50 (mg/kg). ED50 values were

[18] = system: Salmonella typhimurium 8-9; assay: In vitro antibacterial activity (MIC), Salmonella typhimurium 8-9; format: cell-based; details: Salmonella enterica; Salmonella typhimurium 8-9; read-out: minimum inhibitory concentration (MIC)
Source text: as §1

[19] = system: Pseudomonas aeruginosa No. 12; assay: in vivo efficacy on the ascending kidney infection in mice; set-up: species or system mice (ddY-S)
Description: Female mice (ddY-S) weighing 22 to 30 g were anesthetized by intravenous injection of sodium pentobarbital at a dose of 50 mg/kg. Through a small suprapubic incision, the urinary bladder was exposed and then infected by injecting 0.1 ml of a 1:10,000 dilution of Pseudomonas aeruginosa No. 12 cultured for 20 hours in trypto-soy broth, using 0.25 ml syringe with 0.25 mm needle. The mice were restrained from drinking water for a period from 1 day before to 1 day after the infection and treated twice a day for 3 days starting on the day of infection. On the 5th day after infection, the kidneys were harvested for the detection of the bacteria, transversely bisected and stamped on King A Agar, which were incubated at 37° C. overnight. No bacterial finding in the kidneys was regarded as protected from the ascending kindey infection. ED50 values were calculated by probit analysis.

[20] = system: Gram-positive bacteria and Gram-negative bacteria; assay: In vitro antibacterial activity against 19 strains of bacteria (overall); format: cell-based; details: comparisons are with compounds of the invention
Source text: as §1

[21] = system: Gram-positive and Gram-negative bacteria; assay: in vivo therapeutic efficacy against systemic infections in mice (overall); set-up: species or system mice (ddY)
[22] = system: Staphylococcus aureus No. 50774; assay: In vitro antibacterial activity (MIC), Staphylococcus aureus No. 50774; format: cell-based; details: Staphylococcus aureus No. 50774; read-out: minimum inhibitory concentration (MIC)
Source text: as §1

For C=Cn1cc(C(=O)O)c(=O)c2cc(F)c(N3CCNCC3)nc21 [Compound 2, 6-Fluoro-1,4-dihydro-4-oxo-7-(1-piperazinyl)-1-vinyl-1,8-naphthyridine-3-carboxylic acid], which MIC [1] is on record?
Its MIC is 0.2 µg/mL (≈ 0.628 µM).

And the MIC [2]?
Its MIC is 1 µg/mL (≈ 3.14 µM).

What about the MIC (Proteus mirabilis P-2381) of the same molecule?
The MIC was 0.2 µg/mL (≈ 0.628 µM).

And the ED50 [3]?
The ED50 was 33.4 mg/kg.

What about the MIC (Proteus morganii Kono) of the same molecule?
Its MIC is 0.1 µg/mL (≈ 0.314 µM).

What about the “urinary excretion (in words)” value ([4]; 24 hours) of the same molecule?
Its value is “fairly good”.

What about the concentration at 24 h ([4]; dog, urine, po, 25 mg/kg, urine pooled over 24 hours, oral 25 mg/kg) of the same molecule?
Its concentration at 24 h is 326000 ng/mL.

What about the dose excreted at 24 h ([4]; dog, urine, po, 25 mg/kg, urine pooled over 24 hours, oral 25 mg/kg, read-out: urinary recovery) of the same molecule?
Its dose excreted at 24 h is 29.4%.

And the MIC [5]?
Its MIC is 25 µg/mL (≈ 78.5 µM).

And the concentration at 2 h (Plasma level in dogs; dog, plasma, 2 hr after oral 25 mg/kg)?
Its concentration at 2 h is 1500 ng/mL.

What about the concentration at 3 h (Plasma level in dogs; dog, plasma, 3 hr after oral 25 mg/kg) of the same molecule?
The concentration at 3 h was 2800 ng/mL.

What about the concentration at 6 h (Plasma level in dogs; dog, plasma, 6 hr after oral 25 mg/kg) of the same molecule?
The concentration at 6 h was 5500 ng/mL.

What about the concentration at 8 h (Plasma level in dogs; dog, plasma, 8 hr after oral 25 mg/kg) of the same molecule?
Its concentration at 8 h is 5200 ng/mL.

And the concentration at 10 h (Plasma level in dogs; dog, plasma, 10 hr after oral 25 mg/kg)?
The concentration at 10 h was 4400 ng/mL.

What about the “absorption in the body by oral administration (in words)” value (Plasma level in dogs; oral 25 mg/kg) of the same molecule?
Its value is “well absorbed”.

And the “period after administration with plasma level higher than the MIC values against most bacteria” value (Plasma level in dogs; oral 25 mg/kg)?
Its value is “at least 2 hours to even more than 10 hours”.

What about the MIC (Escherichia coli P-5101 [6]) of the same molecule?
Its MIC is 0.05 µg/mL (≈ 0.157 µM).

And the MIC [7]?
The MIC was 0.1 µg/mL (≈ 0.314 µM).

And the MIC [8]?
The MIC was 0.2 µg/mL (≈ 0.628 µM).

What about the MIC [9] of the same molecule?
The MIC was 0.2 µg/mL (≈ 0.628 µM).

What about the ED50 (Escherichia coli P-5101 [10]) of the same molecule?
Its ED50 is 1.3 mg/kg.

What about the MIC [11] of the same molecule?
The MIC was 0.39 µg/mL (≈ 1.23 µM).

And the LD50 at 168 h (in vivo)?
The LD50 at 168 h was greater than 4000 mg/kg.

What about the MIC [12] of the same molecule?
Its MIC is 12.5 µg/mL (≈ 39.3 µM).

What about the MIC [13] of the same molecule?
Its MIC is 1.56 µg/mL (≈ 4.9 µM).

And the MIC [14]?
Its MIC is 0.1 µg/mL (≈ 0.314 µM).

What about the MIC [15] of the same molecule?
The MIC was 1.56 µg/mL (≈ 4.9 µM).

And the MIC (Escherichia coli P-140a)?
The MIC was 0.1 µg/mL (≈ 0.314 µM).

What about the MIC (Shigella flexneri 2a) of the same molecule?
Its MIC is 0.1 µg/mL (≈ 0.314 µM).

And the MIC [16]?
Its MIC is 0.05 µg/mL (≈ 0.157 µM).

And the ED50 [17]?
Its ED50 is 2.4 mg/kg.

And the MIC [18]?
Its MIC is 0.05 µg/mL (≈ 0.157 µM).

What about the ED50 ([19]; 120 h, ascending kidney infection with Pseudomonas aeruginosa No. 12, po, mice) of the same molecule?
Its ED50 is 0.56 mg/kg.

And the “therapeutic effect against ascending kidney infection (in words)” value ([19]; compounds 1 and 2 (1, 1' and 2 elsewhere in the source) compared with compound D)?
Its value is “clearly better than that of compound D”.

What about the “antibacterial activity (in words)” value [20] of the same molecule?
The value was “very high antibacterial activities”.

What about the “therapeutic effect in vivo against Gram-negative bacteria, relative to compound D” value ([21]; Gram-negative including Pseudomonas aeruginosa) of the same molecule?
The value was “clearly better”.

What about the “therapeutic effect against Gram-negative bacteria, relative to compound 1 or 1'” value ([21]; systemic infection, Gram-negative) of the same molecule?
Its value is “superior”.

And the “therapeutic effect against Gram-negative bacteria, relative to compounds A, C, E, F, G, H and J” value ([21]; systemic infection, Gram-negative, especially Pseudomonas aeruginosa)?
The value was “better therapeutic effects”.

What about the “therapeutic effect against Gram-positive bacteria, relative to compound 1 or 1'” value ([21]; systemic infection, Gram-positive) of the same molecule?
The value was “inferior”.

And the MIC [22]?
Its MIC is 3.13 µg/mL (≈ 9.83 µM).
